Starred links: 1 amine or outer side, 2 acyl side, 3 side chain; linkers in the order of their positions; H or OH if unused. Non-standard residues stand in square brackets, D forms with d. Residues, ends and D or L forms follow the SMILES beside them. Groups on a side chain read outwards from the residue. *: point of attachment. C18 diacid = O=C(O)CCCCCCCCCCCCCCCCC(=O)*; γGlu = O=C(O)[C@H](CCC(=O)[*:2])N[*:1]; AEEA = NCCOCCOCC(=O)O; Aib = CC(C)(N)C(=O)O
Assay: Effect on blood pressure, telemetry (Example 17)
Assay type: in vivo
Conditions: Sprague Dawley rats, 0.1 mg/kg SC
Procedure: The effect of the compounds on blood pressure was determined in telemetry studies in Sprague Dawley rats at a dosage of 0.1 mg/kg SC.
The rats were previously implanted with a telemetry device (DSI, Saint-Paul, USA, HD-S10, HD-S11 or HD S21) and allowed to recover for a minimum period of 2 weeks before treatment with vehicle or the different peptides. Blood pressure (BP) was recorded through a catheter inserted into the abdominal aorta. The device body was placed in the abdomen. At the end of surgery, animals were placed in individual cages until the end of the study.
Pressure signals were recorded for one hour before the treatment (basal period). Thereafter, the subcutaneous administration of the test compound or its vehicle was performed, under continuous recording of the signal over a 48-hour period. Data acquisition was performed using Hem 4.3 acquisition software (Notocord®, Le Pecq, France) connected to the telemetry device. Hemodynamic parameters were recorded during a […] before treatment and every 4-hour period following subcutaneous administration over 48 hours.
Investigated parameters (calculated from BP signal) were Heart Rate (HR) in beats per minute (bpm), Diastolic and Systolic Blood Pressure (DBP) in mmHg, and Mean Blood Pressure (MBP) in mmHg.
Data from Hem were manipulated using Microsoft Excel®. For each parameter, a basal value was determined as the average calculated over a 1-hour period during the pre-treatment sequence, and the values post treatment were calculated over 4-hour periods ([0-4], [4-8], [8-12], [12-16], [16-20], [20-24], [24-28], [32-36], [36-40], [40-44] and [44-48] hours) covering the 48-hour period following administration.
Representative data are presented in Table 15 below, in which “n” represents the number of animals for which individual values were obtained and “Duration” indicates the last time point for which a significant effect on BP was still seen: Table 15

Structure (SMILES)	Duration (h): last time point for which a significant effect on BP was still seen [h]	Effect on Systolic Pressure % change from baseline 8 h [%]	Effect on Systolic Pressure % change from baseline 24 h [%]
CC[C@H](C)[C@H](N)C(=O)N[C@H](C(=O)N[C@@H](CC(C)C)C(=O)N[C@@H](CO)C(=O)N[C@@H](CC(C)C)C(=O)N[C@@H](CC(=O)O)C(=O)N[C@@H](C(=O)N1CCC[C@H]1C(=O)N[C@H](C(=O)N[C@@H](CCCCN)C(=O)N[C@@H](CC(C)C)C(=O)N[C@@H](CCCCNC(=O)COCCOCCNC(=O)COCCOCCNC(=O)CC[C@H](NC(=O)CCCCCCCCCCCCCCCCC(=O)O)C(=O)O)C(=O)N[C@@H](CCC(N)=O)C(=O)N[C@H](C(=O)N[C@@H](CC(C)C)C(=O)N[C@@H](CC(C)C)C(=O)N[C@@H](CCCCN)C(=O)N[C@@H](CCC(N)=O)C(=O)N[C@@H](C)C(=O)N[C@@H](CCCNC(=N)N)C(=O)N[C@@H](CCC(N)=O)C(=O)N[C@@H](CCCCN)C(=O)NC(C)(C)C(=O)N[C@@H](CCC(N)=O)C(=O)N[C@@H](CCCNC(=N)N)C(=O)N[C@@H](C)C(=O)N[C@@H](CCC(N)=O)C(=O)N[C@@H](C)C(=O)N[C@@H](CCC(=O)O)C(=O)N[C@@H](CCCCN)C(=O)N[C@@H](CC(N)=O)C(=O)N[C@@H](CCCCN)C(=O)N[C@@H](CCCNC(=N)N)C(=O)N[C@H](C(=O)N[C@@H](CC(C)C)C(=O)N[C@@H](CCC(=O)O)C(=O)N[C@@H](CCCNC(=N)N)C(=O)N[C@H](C(N)=O)C(C)C)[C@@H](C)CC)[C@@H](C)CC)[C@@H](C)CC)C(C)C)C(C)C [SEQ ID NO: 141, IVLSLDvPIKLK*QILLKQARQKAibQRAQAEKNKRILERV-NH2] (H-IVLSLD[dV]PIKLK([AEEA-AEEA-γGlu-C18 diacid])QILLKQARQK[Aib]QRAQAEKNKRILERV-NH2)	24	−5.2	−4.2
CC[C@H](C)[C@H](N)C(=O)N[C@H](C(=O)N[C@@H](CC(C)C)C(=O)N[C@@H](CO)C(=O)N[C@@H](CC(C)C)C(=O)N[C@@H](CC(=O)O)C(=O)N[C@@H](C(=O)N1CCC[C@H]1C(=O)N[C@H](C(=O)N[C@@H](CCCCN)C(=O)N[C@@H](CC(C)C)C(=O)N[C@@H](CCCCNC(=O)COCCOCCNC(=O)COCCOCCNC(=O)CC[C@H](NC(=O)CCCCCCCCCCCCCCCCC(=O)O)C(=O)O)C(=O)N[C@@H](CCC(N)=O)C(=O)N[C@H](C(=O)N[C@@H](CC(C)C)C(=O)N[C@@H](CC(C)C)C(=O)N[C@@H](CCC(=O)O)C(=O)N[C@@H](CCC(N)=O)C(=O)N[C@@H](C)C(=O)N[C@@H](CCCNC(=N)N)C(=O)N[C@@H](CCC(N)=O)C(=O)N[C@@H](CCCCN)C(=O)NC(C)(C)C(=O)N[C@@H](CCC(N)=O)C(=O)N[C@@H](CCCNC(=N)N)C(=O)N[C@@H](CCC(=O)O)C(=O)N[C@@H](CCC(N)=O)C(=O)N[C@@H](C)C(=O)N[C@@H](CCC(=O)O)C(=O)N[C@@H](CCCCN)C(=O)N[C@@H](CC(N)=O)C(=O)N[C@@H](CCCCN)C(=O)N[C@@H](CCCNC(=N)N)C(=O)N[C@H](C(=O)N[C@@H](CC(C)C)C(=O)N[C@@H](CCC(=O)O)C(=O)N[C@@H](CCCNC(=N)N)C(=O)N[C@H](C(N)=O)C(C)C)[C@@H](C)CC)[C@@H](C)CC)[C@@H](C)CC)C(C)C)C(C)C [SEQ ID NO: 142, IVLSLDvPIKLK*QILLEQARQKAibQREQAEKNKRILERV-NH2] (H-IVLSLD[dV]PIKLK([AEEA-AEEA-γGlu-C18 diacid])QILLEQARQK[Aib]QREQAEKNKRILERV-NH2)	30	−22.2	−6.5

From patent US12679878B2, “CRF2 receptor agonists and their use in therapy” (SANOFI, priority 2020, dated 2026)
